# Measured values as given in publication PMC10107299, “Neutralizing the Impact of the Virulence Factor LecA from Pseudomonas aeruginosa on Human Cells with New Glycomimetic Inhibitors” (Angewandte Chemie (International Ed. in English), 2023).
# Assays:
# LecA [1] = target: T1, LecA (Pseudomonas aeruginosa, UniProt Q05097); assay: Competitive binding assay based on fluorescence polarization
# T1 construct: made in house
# Method: All synthesized galactosides were then evaluated for LecA inhibition using a competitive binding assay based on fluorescence polarization (Figure S1).[24]
# Expression and purification of LecA as well as competitive binding by fluorescence polarization was performed as described by Joachim et al..[9] The assay was performed in TBS/Ca2+ buffer (20 mM Tris, 137 mM NaCl, 2.6 mM KCl at pH 7.4 supplemented with 1 mM CaCl2) in presence of 25% DMSO. Averages and standard deviations were calculated from at least three independent experiments. […]
# RR OR In h i b i to r [µ M ]
# R R In h i b i to r [µ M ] […]
# R In h i b i to r [µ M ] 30 L2
# 30 F2 40 K2 In h i b i to r [µ M ] […]
# In h i b i to r [µ M ] In h i b i to r [µ M ]
# Figure S1: Evaluation of amide divalent LecA ligands in a competitive binding assay based on fluorescence […]
# representative experiment is shown or each series. Averages and standard deviations from at least three independent titrations of triplicates each.
# […] Fluorescence polarization [mP] -1 0 1 2 3 0 1001010 Me-α-Gal pNO2-Ph-β-Gal 1000 Inhibitor [µM] Fluorescence polarization [mP])
# [2] = In vitro metabolic stability, mouse liver microsomes; type: in vitro ADME; settings: N=3, read-out: CLint MLM
# Method: Acetonitrile and caffeine were dispensed using a Mantis Formulatrix. Then samples were centrifuged for 20 min at 2.270 x g at 4 °C and the supernatants were transferred to 96-well Greiner V-bottom plates. Peak areas of each compound and of the internal standard were analyzed using the MultiQuant 3.0 software (AB Sciex). Peak areas of the respective compound were normalized to the internal standard peak area and to the respective peak areas at time point 0 min: (C/D)/(A/B) with A: peak area of the compound at time point 0 min, B: peak area of the internal standard at time point 0 min, C: peak area of the compound at the respective time point, D: peak area of the internal standard at the respective time point.
# In vitro metabolic stability assay
# Liver microsomes (mouse and human, Thermo Fisher) were thawed slowly on ice. 20 mg/mL of microsomes, 2 µL of a 100 µM solution of every compound and 183 µL of 100 mM phosphate buffer were incubated 5 min at 37 °C in a water bath. Reactions were initiated using 10 µL of 20 mM NADPH (CarlRoth). Samples were incubated in three replicates at 37 °C under gentle agitation at 150 rpm. At 0, 5, 15, 30, and 60 min, reactions were terminated by the addition of 180 µL acetonitrile using a Mantis Formulatrix dispenser. Samples were vortexed for 5 min using an Eppendorf MixMate vortex mixer and centrifuged at 2.270 x g for 20 min at 4 °C. The supernatants were transferred to 96-well Greiner V-bottom plates, sealed and analyzed according to the section HPLC-MS analysis. Peak areas of the respective time point of the compounds were normalized to the peak area at time point 0 min. Then half-life was calculated using linear regression (Microsoft Excel). Clint [µL/min/mg protein] was calculated using the following formula: […]
# LecA [3] = target: T1, LecA; assay: Direct binding to immobilized LecA by surface plasmon resonance (SPR); settings: for kon: SPR single-cycle kinetics, 25 °C, N=3 (I1 N=1); for Relative potency r.p. (SPR): compared to respective monovalent compound in each series
# Method: K d values were oscillating with the number of methylene units present in the linker, presumably linked to the zig‐zag geometry of the hydrocarbon chain.
# Expression and purification of LecA as well as competitive binding by fluorescence polarization was performed as described by Joachim et al..[9] […]
# Surface plasmon resonance experiments were performed on a BIACORE X100 instrument (GE Healthcare) at 25 °C as described by Zahorska et. al..[8] Averages and standard deviations were calculated from three independent experiments. […]
# Figure S3: SPR of divalent LecA ligands from benzene series. Sensorgrams obtained from SPR single-cycle kinetics experiments. Five different concentrations of each compound (0, 10, 50, 100, 200 nM) were sequentially injected to obtain the experimental sensorgrams (blue lines), which were then fitted by a 1:1 model (orange) on BIACORE evaluation software. […]
# Figure S4: SPR of divalent LecA ligands from pyridine and sulfonated series. Sensorgrams obtained from SPR single-cycle kinetics experiments. Five different concentrations of each compound (0, 10, 50, 100, 200 nM) were sequentially injected to obtain the experimental sensorgrams (blue lines), which were then fitted by a 1:1 model (orange) on BIACORE evaluation software.
# (also on this page, place not known: Response (RU)0 Response (RU)0 Response (RU) Response (RU) Response (RU) Response (RU) 030060090012001500) […]
# T1 sequence (Q05097 whole entry): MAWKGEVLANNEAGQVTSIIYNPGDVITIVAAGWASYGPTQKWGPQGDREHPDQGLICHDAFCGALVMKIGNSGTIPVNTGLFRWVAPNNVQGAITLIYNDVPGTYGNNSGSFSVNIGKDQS
Compound,IC50 (LecA [1]) [µM],microsomal CLint at 1 µM [2] [µL/min/mg],Kd (LecA [3]) [µM],koff (LecA [3]) [s⁻¹],kon (LecA [3]),Relative potency r.p. (SPR) (LecA [3])
O=C(/C=C/c1ccc(O[C@@H]2O[C@H](CO)[C@H](O)[C@H](O)[C@H]2O)cc1)Nc1ccc(OCCOc2ccc(NC(=O)/C=C/c3ccc(O[C@@H]4O[C@H](CO)[C@H](O)[C@H](O)[C@H]4O)cc3)cc2)cc1 [Compound D1],5.6 ± 3.1,22.4,0.0407 ± 0.003,0.00249 ± 0.00028,61.1 ± 2.5 x10^3/Ms,128
O=C(CCc1ccc(O[C@@H]2O[C@H](CO)[C@H](O)[C@H](O)[C@H]2O)cc1)Nc1ccc(OCCOc2ccc(NC(=O)CCc3ccc(O[C@@H]4O[C@H](CO)[C@H](O)[C@H](O)[C@H]4O)cc3)cc2)cc1 [Compound D2],4.5 ± 1.8,29.6,0.0231 ± 0.0003,0.00284 ± 6e-05,123 ± 4.1 x10^3/Ms,233
COc1ccc(NC(=O)CCc2ccc(O[C@@H]3O[C@H](CO)[C@H](O)[C@H](O)[C@H]3O)cc2)cn1 [Compound G2],14.3 ± 7.2,,2.97 ± 0.08,,,1
O=C(/C=C/c1ccc(O[C@@H]2O[C@H](CO)[C@H](O)[C@H](O)[C@H]2O)cc1)Nc1ccc(OCCOc2ccc(NC(=O)/C=C/c3ccc(O[C@@H]4O[C@H](CO)[C@H](O)[C@H](O)[C@H]4O)cc3)cn2)nc1 [Compound H1],8 ± 4.3,17.5,0.0137 ± 0.0016,0.00165 ± 0.00012,121 ± 6.8 x10^3/Ms,217
O=C(CCc1ccc(O[C@@H]2O[C@H](CO)[C@H](O)[C@H](O)[C@H]2O)cc1)Nc1ccc(OCCOc2ccc(NC(=O)CCc3ccc(O[C@@H]4O[C@H](CO)[C@H](O)[C@H](O)[C@H]4O)cc3)cn2)nc1 [Compound H2],4.8 ± 2.2,6.8,0.0099 ± 0.0001,0.00141 ± 5e-05,142 ± 3.5 x10^3/Ms,300
Cc1ccc(NC(=O)CCc2ccc(O[C@@H]3O[C@H](CO)[C@H](O)[C@H](O)[C@H]3O)cc2)cc1S(=O)(=O)O [Compound K2],14.4 ± 3.6,,3.79 ± 0.1,,,1
O=C(CCc1ccc(O[C@@H]2O[C@H](CO)[C@H](O)[C@H](O)[C@H]2O)cc1)Nc1ccc(CCc2ccc(NC(=O)CCc3ccc(O[C@@H]4O[C@H](CO)[C@H](O)[C@H](O)[C@H]4O)cc3)cc2S(=O)(=O)O)c(S(=O)(=O)O)c1 [Compound L2],4.6 ± 2.2,29.5,0.0328 ± 0.0015,0.00707 ± 0.0011,215 ± 29 x10^3/Ms,115
